Experimental data from ChEMBL document CHEMBL5050843, “Amide substituted thiazoles as protein secretion inhibitors” (2019).

Experiments:
[1] = Inhibition of constitutively active PR1ss-Gluc secretion in human Flp-In-T-REx-293 cells measured by Gaussia luciferase reporter gene method; type: functional, cell-based
[2] = Inhibition of constitutively active VCAMss-Gluc secretion in human Flp-In-T-REx-293 cells measured by Gaussia luciferase reporter gene method; type: functional, cell-based

Row | IC50 [1] [µM] | IC50 [2] [µM] | Compound
1 | > 25 | 17.4 | CC(C)(C)c1csc(NC(=O)CCc2ccccc2)n1
2 | > 25 | 7.65 | Cc1ccc(C(=O)Nc2nc(C(C)(C)C)cs2)s1
3 | > 25 | 0.714 | CC(C)(C)c1csc(NC(=O)Cc2cn(CC3CCCCC3)c3ccc(Cl)cc23)n1
4 | > 25 | > 25 | CC(C)(C)c1csc(NC(=O)C2CCOC2)n1 (stereo not drawn)
5 | > 25 | 6.53 | CC(C)CC(C(=O)Nc1nc(C(C)(C)C)cs1)c1csc2ccc(Cl)cc12 (stereo not drawn)
6 | > 25 | > 25 | CC(C)(C)c1csc(NC(=O)CN2CCCCC2)n1
7 | > 25 | > 25 | CC(C)(C)c1csc(NC(=O)C2=CCCC2)n1
8 | > 25 | > 25 | CC(C)(C)c1csc(NC(=O)C2CCCc3ccccc32)n1 (stereo not drawn)
9 | > 25 | > 25 | CC(C)(C)c1csc(NC(=O)[C@@H]2CCCO2)n1
10 | > 25 | 22.6 | CC(C)(C)c1csc(NC(=O)c2csc3ccccc23)n1
11 | > 25 | > 25 | CC(C)(C)c1csc(NC(=O)Cc2c[nH]c3ccccc23)n1
12 | > 25 | 18.4 | CC(C)(C)c1csc(NC(=O)Cc2ccccc2Cl)n1
13 | > 25 | 11.1 | C[C@@H](C(=O)Nc1nc(C(C)(C)C)cs1)c1ccccc1
14 | > 25 | > 25 | CC(C)(C)c1csc(NC(=O)[C@H](O)c2cccc(Cl)c2)n1
15 | > 25 | 0.775 | C=CCC(C)(C)c1csc(NC(=O)Cc2csc3ccc(Cl)cc23)n1
16 | > 25 | > 25 | Cc1cc(C(=O)N(C)c2nc(C(C)(C)C)cs2)cs1
17 | > 25 | 4.57 | CC(C)(C)c1csc(NC(=O)Cc2csc3ccc(-c4ccccc4)cc23)n1
18 | > 25 | 2.64 | CC(C)(C)c1csc(NC(=O)Cc2ccc(Cl)c(Cl)c2)n1
19 | > 25 | 3.2 | Cc1cccc2scc(CC(=O)Nc3nc(C(C)(C)C)cs3)c12
20 | > 25 | 1.91 | CC(C)(C)c1csc(NC(=O)Cc2cc(F)cc(Cl)c2)n1
21 | > 25 | 0.325 | CC(C)(C)c1csc(NC(=O)Cc2cn(Cc3ccc(Cl)cc3)c3ccc(Cl)cc23)n1
22 | > 25 | 9.82 | CC(C)(C)c1csc(NC(=O)CC2CCCC2)n1
23 | > 25 | 17.1 | Cc1csc(C(=O)Nc2nc(C(C)(C)C)cs2)c1
24 | > 25 | 3.45 | CC(C)(C)c1csc(NC(=O)Cc2cccc3ccccc23)n1

Row | IC50 [1] [µM] | IC50 [2] [µM] | Compound
25 | > 25 | 4.93 | CC(C)(C)c1csc(NC(=O)c2cc3ccccc3s2)n1
26 | > 25 | 23.1 | CC(C)(C)c1csc(NC(=O)CCc2csc3ccccc23)n1
27 | > 25 | > 25 | CC(C)(C)c1csc(NC(=O)c2ccc3ocnc3c2)n1
28 | > 25 | > 25 | CC(C)c1cccc(C(=O)Nc2nc(C(C)(C)C)cs2)c1
29 | > 25 | 4.88 | CC(C)(C)c1csc(NC(=O)Cc2ccc(Cl)cc2)n1
30 | > 25 | > 25 | CC(C)(C)c1csc(NC(=O)Cc2ccc3cn[nH]c3c2)n1
31 | > 25 | > 25 | CC(C)(CCO)c1csc(NC(=O)Cc2cc(Cl)cc(Cl)c2)n1
32 | > 25 | > 25 | CC(C)(CCO)c1csc(NC(=O)Cc2csc3ccc(Cl)cc23)n1
33 | > 25 | 0.464 | CC(C)(C)c1csc(NC(=O)Cc2cn(Cc3cccc(Cl)c3)c3ccc(Cl)cc23)n1
34 | > 25 | 8.15 | CC(C)(C)c1csc(NC(=O)C2(c3cccc(Cl)c3)CCCC2)n1
35 | > 25 | 8.4 | CC(C)(C)c1csc(NC(=O)c2cccc(Cl)c2)n1
36 | > 25 | > 25 | Cc1ccc(C(=O)Nc2nc(C(F)(F)F)cs2)s1
37 | > 25 | 5.3 | CC(C)(C)c1csc(NC(=O)Cc2coc3ccccc23)n1
38 | > 25 | 15 | CC(C)(C)c1csc(NC(=O)Cc2ccc3ccccc3c2)n1
39 | > 25 | > 25 | CC(C)(C)c1csc(NC(=O)c2cccc(CN3CCOCC3)c2)n1
40 | > 25 | 1.76 | CC(C)(C)c1csc(NC(=O)Cc2csc3ccccc23)n1
41 | > 25 | 4.51 | Cn1cc(CC(=O)Nc2nc(C(C)(C)C)cs2)c2ccccc21
42 | > 25 | 17 | CC(C)(C)c1csc(NC(=O)C2CCCC2)n1
43 | > 25 | 9.54 | CC[C@@H](C(=O)Nc1nc(C(C)(C)C)cs1)c1ccccc1
44 | > 25 | 7.45 | Cc1ccc(CC(=O)Nc2nc(C(C)(C)C)cs2)c(C)c1
45 | > 25 | 6.09 | CC(C)(C)c1csc(NC(=O)c2ccc3c(c2)CCCO3)n1
46 | > 25 | 3.92 | CC(C)(C)c1csc(NC(=O)C(Cc2ccccc2)c2csc3ccc(Cl)cc23)n1 (stereo not drawn)
47 | > 25 | > 25 | CC(C)(C)c1csc(NC(=O)c2ncn[nH]2)n1
48 | > 25 | > 25 | COc1cccc(C(=O)Nc2nc(C(C)(C)C)cs2)c1

Row | IC50 [1] [µM] | IC50 [2] [µM] | Compound
49 | > 25 | 5.71 | CC(C)(C)c1csc(NC(=O)Cc2cccc(Br)c2)n1
50 | > 25 | 14.7 | CC(C)(C)c1csc(NC(=O)C(C)(C)c2ccccc2)n1
51 | > 25 | > 25 | CC(C)(C)c1csc(NC(=O)c2cccc(C#N)c2)n1
52 | > 25 | 6.81 | CC(C)(C)c1csc(NC(=O)Cc2cccc(C(F)(F)F)c2)n1
53 | > 25 | 2.05 | CC(C)(C)c1csc(NC(=O)Cc2cn(C(=O)c3ccccc3)c3ccc(Cl)cc23)n1
54 | > 25 | 5.07 | CC(C)(C)c1csc(NC(=O)CC2CCCCCC2)n1
55 | > 25 | > 25 | CC(C)(C)c1csc(NC(=O)c2ccc3cn[nH]c3c2)n1
56 | > 25 | 15.4 | CC(C)(C)c1csc(NC(=O)Cc2cccc(C#N)c2)n1
57 | > 25 | 23.7 | CC(C)(C)c1csc(NC(=O)C2=CCCCC2)n1
58 | > 25 | 1.69 | CC(C)(C)c1csc(NC(=O)Cc2cc(Cl)cc(Cl)c2)n1
59 | > 25 | 11.2 | CC(C)(C)c1csc(NC(=O)C2Cc3ccccc3C2)n1
60 | > 25 | > 25 | C[C@H](C(=O)Nc1nc(C(C)(C)C)cs1)c1ccccc1
61 | > 25 | 6.09 | CC(C)(C)c1csc(NC(=O)CC2CCCCC2)n1
62 | > 25 | 20.7 | CC(C)(C)c1csc(NC(=O)c2ccc3[nH]ncc3c2)n1
63 | > 25 | > 25 | CC(C)(C)c1csc(NC(=O)c2ccccc2Cl)n1
64 | > 25 | 0.908 | CC1(c2csc(NC(=O)Cc3cn(Cc4ccccc4)c4ccc(Cl)cc34)n2)CC1
65 | > 25 | 1.54 | CC(C)(C)c1csc(NC(=O)Cc2cc(Cl)cc(C(F)(F)F)c2)n1
66 | > 25 | > 25 | CC(C)(C)c1csc(NC(=O)CN2CCOCC2)n1
67 | > 25 | 2.08 | CC(C)(C)c1csc(NC(=O)Cc2cn(Cc3ccccn3)c3ccc(Cl)cc23)n1
68 | > 25 | > 25 | CC(C)(C)c1csc(NC(=O)c2cccnn2)n1
69 | > 25 | 10.3 | COc1cccc(CC(=O)Nc2nc(C(C)(C)C)cs2)c1
70 | > 25 | 6.49 | CC(C)(C)c1csc(NC(=O)C(C)(C)c2ccc(Cl)c(Cl)c2)n1
71 | > 25 | > 25 | CC(C)(C)c1csc(NC(=O)c2scc3c2CCCC3)n1
72 | > 25 | 8.18 | CC(C)(C)c1csc(NC(=O)Cc2cc(F)c(F)c(F)c2)n1

Row | IC50 [1] [µM] | IC50 [2] [µM] | Compound
73 | – | 22.8 | Cc1cc(C(=O)Nc2nc(C(C)C)cs2)cs1
74 | > 25 | > 25 | CC(C)(C)c1csc(NC(=O)Cc2cccnc2)n1
75 | – | 22.2 | Cn1cc(C(=O)Nc2nc(C(C)(C)C)cs2)cn1
76 | > 25 | 24.1 | CC(C)(C)c1csc(NC(=O)Cc2ccccc2)n1
77 | > 25 | 8.93 | CCOC(=O)CC(C)(C)c1csc(NC(=O)Cc2cc(Cl)cc(Cl)c2)n1
78 | > 25 | > 25 | CC(C)(C)c1csc(NC(=O)C2CCOCC2)n1
79 | > 25 | > 25 | CC(C)(C)c1csc(NC(=O)c2cccc(N3CCCC3)c2)n1
80 | > 25 | 3.67 | CC(C)(C)c1csc(NC(=O)Cc2cn(Cc3cccnc3)c3ccc(Cl)cc23)n1
81 | > 25 | 9.01 | CC(C)(C)c1csc(NC(=O)C(C)(C)C2CCCCC2)n1
82 | > 25 | 1.4 | CC(C)(C)c1csc(NC(=O)Cc2csc3ccc(Br)cc23)n1
83 | > 25 | 9.01 | CC(C)(C)c1csc(NC(=O)CC2CCCc3ccccc32)n1 (stereo not drawn)
84 | > 25 | 11.8 | CC(C)(C)c1csc(NC(=O)C2CCc3ccccc3C2)n1 (stereo not drawn)
85 | > 25 | > 25 | CC(C)(C)c1csc(NC(=O)Cc2cc3ccccc3s2)n1
86 | > 25 | > 25 | CC(C)(C)c1csc(NC(=O)c2ccc3c(c2)OCCN3)n1
87 | > 25 | 8.6 | CC(C)(C)c1csc(NC(=O)C(C)(C)c2cccc(Cl)c2)n1
88 | > 25 | 7.85 | CC(C)(C)c1csc(NC(=O)Cc2cccc(Cl)c2)n1
89 | > 25 | > 25 | COCCC(C)(C)c1csc(NC(=O)Cc2csc3ccc(Cl)cc23)n1
90 | > 25 | 9.08 | Cc1cc(C(=O)Nc2nc(C(C)(C)C)cs2)sc1C
91 | > 25 | 8.75 | CC(C)(C)c1csc(NC(=O)Cn2ccc3ccccc32)n1
92 | > 25 | 3.21 | CC(C(=O)Nc1nc(C(C)(C)C)cs1)c1csc2ccc(Cl)cc12 (stereo not drawn)
93 | > 25 | > 25 | CC(C)(C)c1csc(NC(=O)c2ccnnc2)n1
94 | > 25 | > 25 | CC(C)(C)c1csc(NC(=O)CC2CCOCC2)n1
95 | > 25 | 19.6 | CC(C)(C)c1csc(NC(=O)C2(c3cccc(Cl)c3)CC2)n1
